One data set has as its target jack bean urease (Canavalia ensiformis, UniProt P07374). The data set can be described thus: biochemical. Type of data set: biochemical. The following applies: for % Inhibition (urease): value in parentheses beside IC50; for urease inhibition (in words): qualitative statement.
Another data set concerns the target urease (Canavalia ensiformis, UniProt P07374). The data set can be described thus: biochemical. The format is biochemical, jack bean. Conditions: for Mode of Inhibition: Lineweaver–Burk plot, inhibitor 0–20 µM, urea 0.5–4.0 mM; for Vmax (app): intercept, the maximum rate at 20 µM of inhibitor concentration.

Where two headings read alike, the source gives them in different places.

By IC50 is commonly meant the point on the concentration scale where inhibition reaches its midpoint. The melting point is the temperature, or range, at which the solid turns liquid. The term Ki denotes a dissociation constant, usually derived from enzyme kinetics or from competition with a known ligand. As usually defined, the Km is the substrate concentration at which the rate is half of its maximum.

jack bean urease, sequence (P07374 whole entry, looked up): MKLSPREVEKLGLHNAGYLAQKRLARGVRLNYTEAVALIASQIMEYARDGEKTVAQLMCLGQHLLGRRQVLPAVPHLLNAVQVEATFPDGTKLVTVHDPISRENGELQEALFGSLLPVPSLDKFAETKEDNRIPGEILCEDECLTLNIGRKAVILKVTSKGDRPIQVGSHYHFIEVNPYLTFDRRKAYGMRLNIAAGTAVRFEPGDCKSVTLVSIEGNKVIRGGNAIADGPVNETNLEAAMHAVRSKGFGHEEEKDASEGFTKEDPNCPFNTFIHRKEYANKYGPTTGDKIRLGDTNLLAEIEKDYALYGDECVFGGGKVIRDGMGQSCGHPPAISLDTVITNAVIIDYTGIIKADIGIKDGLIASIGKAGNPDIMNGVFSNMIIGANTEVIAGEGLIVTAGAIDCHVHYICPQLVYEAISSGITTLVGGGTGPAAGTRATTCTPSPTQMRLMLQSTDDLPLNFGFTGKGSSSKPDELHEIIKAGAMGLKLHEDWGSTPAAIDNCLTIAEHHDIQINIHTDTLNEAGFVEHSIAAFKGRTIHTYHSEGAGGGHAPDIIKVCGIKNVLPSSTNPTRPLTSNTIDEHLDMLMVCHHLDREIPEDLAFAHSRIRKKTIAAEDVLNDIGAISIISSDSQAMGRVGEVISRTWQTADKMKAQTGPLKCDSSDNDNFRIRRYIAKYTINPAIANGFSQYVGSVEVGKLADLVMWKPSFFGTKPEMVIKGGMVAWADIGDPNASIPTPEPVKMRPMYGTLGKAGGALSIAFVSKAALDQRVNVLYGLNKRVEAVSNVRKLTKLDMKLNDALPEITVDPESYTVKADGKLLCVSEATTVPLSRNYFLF
urease, sequence (P07374 whole entry, looked up): as above
Experimental for jack bean urease: Briefly, DMSO was used to dissolve the synthesized conjugates (inhibitors, 250–0.49 µM) and the reference urease inhibitor (thiourea). Each falcon tube contained the respective inhibitor (20 µL), buffer (K2HPO4, 100 µL, 50 mM, pH = 6.8), and jack bean urease (20 µL); each tube was mixed well; and the mixtures were incubated for 30 min at 37 °C. Each tube received 400 µL of urea (20 mM) as a substrate, which was then incubated for 10 min at the same temperature. Afterward, each tube received 400 µL of phenol reagent and 750 µL of alkali reagent containing 0.1% active chlorine and was left at 37 °C for 50 min. Following the use of a spectrophotometer (Labdex, LX210DS, London, UK) to measure absorbance of the mixture in each tube at 595 nm, Equation (1) below was used to compute the percentage of urease inhibition: (1) % Urease inhibition=1−T/C×100 where, T and C are the absorbance of each well containing inhibitor and blank, respectively. The results are presented as mean ± SEM. Using a regression equation where 50% inhibition was seen, the IC50 values of each inhibitor were determined.

For `CC(C)Cc1ccc(C(C)C(=O)Nc2ccc(S(=O)(=O)NC(=N)N)cc2)cc1` (stereo not drawn) [Conjugate 11, N-(4-(N-Carbamimidoylsulfamoyl)phenyl)-2-(4-isobutylphenyl)propanamide], the melting point lay within 138 to 139 °C. Moreover, at jack bean urease, 44.5 ± 1.41 µM corresponded to half-maximal inhibition (IC50) and the “urease inhibition (in words)” value is given as “moderate inhibition”. In addition, the “% Inhibition (urease)” value at jack bean urease (jack bean urease) was found to be 78.7%.
Take `CC(C(=O)Nc1ccc(S(=O)(=O)Nc2ncccn2)cc1)c1ccc(-c2ccccc2)c(F)c1` (stereo not drawn) [Conjugate 15, 2-(2-Fluoro-[1,1′-biphenyl]-4-yl)-N-(4-(N-(pyrimidin-2-yl)sulfamoyl)phenyl)propanamide]: the melting point is 155 to 158 °C. The compound further showed an IC50 against jack bean urease of 16.7 ± 0.23 µM. Further, the “% Inhibition (urease)” value at jack bean urease (jack bean urease) was 84.1%. Also, on urease, the inhibition constant (Ki) came out at 7.95 µM, the “Mode of Inhibition” value is “Competitive” and the “Vmax (app)” value amounted to 1.89 µM/min.
For `CC(C(=O)Nc1ccc(S(=O)(=O)Nc2nccs2)cc1)c1ccc(-c2ccccc2)c(F)c1` (stereo not drawn) [Conjugate 14, 2-(2-Fluoro-[1,1′-biphenyl]-4-yl)-N-(4-(N-(thiazol-2-yl)sulfamoyl)phenyl)propanamide], the melting point lay in the range of 137 to 140 °C. On jack bean urease, it took 63.4 ± 1.15 µM to reach half-maximal inhibition (IC50) and the “urease inhibition (in words)” value is “moderate inhibition”. Further, on jack bean urease (jack bean urease), the “% Inhibition (urease)” value was determined as 60.4%.
`CC(C(=O)Nc1ccc(S(N)(=O)=O)cc1)c1ccc(-c2ccccc2)c(F)c1` (stereo not drawn) [Conjugate 12, 2-(2-Fluoro-[1,1′-biphenyl]-4-yl)-N-(4-sulfamoylphenyl)propanamide] gave a melting point of 147 to 150 °C. On jack bean urease, this compound came in with a half-inhibitory concentration (IC50) of 24.92 ± 0.24 µM. In addition, the “% Inhibition (urease)” value at jack bean urease (jack bean urease) amounted to 82.1%.
`Cc1ccnc(NS(=O)(=O)c2ccc(NC(=O)C(C)c3ccc(CC(C)C)cc3)cc2)n1` (stereo not drawn) [Conjugate 8, 2-(4-Isobutylphenyl)-N-(4-(N-(4-methylpyrimidin-2yl)sulfamoyl)phenyl)propanamide] gave a melting point of 152 to 154 °C. On jack bean urease, this compound displayed an IC50 of 12.4 ± 0.54 µM. In addition, the “% Inhibition (urease)” value on jack bean urease (jack bean urease) is recorded as 87.7%. For the same compound, on urease, the Ki turned out to be 3.01 µM, the “Mode of Inhibition” value is reported as “Mixed” and the “Vmax (app)” value was 3.0 µM/min.
On jack bean urease, `Cc1cc(NS(=O)(=O)c2ccc(NC(=O)C(C)c3ccc(-c4ccccc4)c(F)c3)cc2)no1` (stereo not drawn) [Conjugate 17, 2-(2-Fluoro-[1,1′-biphenyl]-4-yl)-N-(4-(N-(5-methylisoxazol-3-yl)sulfamoyl)phenyl)propanamide] displayed an IC50 of 13.39 ± 0.11 µM. Also, the “% Inhibition (urease)” value at jack bean urease (jack bean urease) is reported as 86.1%. For the same compound, at urease, the affinity, expressed as Ki, was 10.4 µM; the “Mode of Inhibition” value is recorded as “Competitive”; the “Vmax (app)” value came to 1.56 µM/min.
Turning to `CC(C)Cc1ccc(C(C)C(=O)Nc2ccc(S(=O)(=O)Nc3nccs3)cc2)cc1` (stereo not drawn) [Conjugate 6, 2-(4-Isobutylphenyl)-N-(4-(N-(thiazol-2-yl)sulfamoyl)phenyl)propanamide], the melting point is 184 to 185 °C. Moreover, half-maximal inhibition against jack bean urease (IC50) was put at 9.95 ± 0.14 µM. In addition, on jack bean urease (jack bean urease), the “% Inhibition (urease)” value came out at 90.6%. On urease, the affinity, expressed as Ki, was 0.17 µM; the “Mode of Inhibition” value was “Competitive”; the “Vmax (app)” value is on record as 1.39 µM/min.
As for `NC(N)=S` [Thiourea, reference compound], the concentration for half-maximal inhibition (IC50) at jack bean urease (jack bean urease, urea substrate, pH 6.8, 37 °C, mean ± SEM, read-out: IC50 (µM), Mean ± SEM) was 22.6 ± 0.23 µM. Further, the “% Inhibition (urease)” value on jack bean urease (jack bean urease) turned out to be 92.3%. In addition, at urease, the “Mode of Inhibition” value is recorded as “Competitive” and the “Vmax (app)” value turned out to be 18.61 µM/min. The Ki at urease (from secondary Lineweaver–Burk plots, read-out: Ki (inhibition constant)) was found to be 18.2 µM. At urease (slope of the line (Michaelis constant) at 20 µM of inhibitor concentration, read-out: Km (app)), the Michaelis-Menten constant (Km) was 2180 µM.
In the case of `Cc1ccnc(NS(=O)(=O)c2ccc(NC(=O)C(C)c3ccc(-c4ccccc4)c(F)c3)cc2)n1` (stereo not drawn) [Conjugate 16, 2-(2-Fluoro-[1,1′-biphenyl]-4-yl)-N-(4-(N-(4-methylpyrimidin-2-yl)sulfamoyl)phenyl)propanamide], the concentration for half-maximal inhibition (IC50) against jack bean urease was found to be 17.5 ± 0.76 µM. The “% Inhibition (urease)” value on jack bean urease (jack bean urease) came to 86.1%. Further, at urease, the inhibition constant (Ki) was determined as 1.3 µM, the “Mode of Inhibition” value is “Mixed” and the “Vmax (app)” value came out at 1.01 µM/min.
In the case of `CC(C)Cc1ccc(C(C)C(=O)Nc2ccc(S(=O)(=O)Nc3ncccn3)cc2)cc1` (stereo not drawn) [Conjugate 7, 2-(4-Isobutylphenyl)-N-(4-(N-(pyrimidin-2-yl)sulfamoyl)phenyl)propanamide], the melting point lay in the range of 171 to 173 °C. Also, on jack bean urease, it took 50.2 ± 1.24 µM to reach half-maximal inhibition (IC50) and the “urease inhibition (in words)” value is on record as “moderate inhibition”. Also, on jack bean urease (jack bean urease), the “% Inhibition (urease)” value amounted to 71.6%.
On to `Cc1noc(NS(=O)(=O)c2ccc(NC(=O)C(C)c3ccc(-c4ccccc4)c(F)c3)cc2)c1C` (stereo not drawn) [Conjugate 13, N-(4-(N-(3,4-Dimethylisoxazol-5-yl)sulfamoyl)phenyl)-2-(2-fluoro-[1,1′-biphenyl]-4-yl)propanamide], for which the melting point lay within 128 to 130 °C. For the same compound, the half-inhibitory concentration (IC50) against jack bean urease was found to be 35.3 ± 0.21 µM. Further, the “% Inhibition (urease)” value on jack bean urease (jack bean urease) came out at 84.6%.
For `CC(C)Cc1ccc(C(C)C(=O)Nc2ccc(S(N)(=O)=O)cc2)cc1` (stereo not drawn) [Conjugate 4, 2-(4-Isobutylphenyl)-N-(4-sulfamoylphenyl)propanamide], the melting point lay within 147 to 150 °C. The same compound displayed an IC50 at jack bean urease of 14.26 ± 0.14 µM. In addition, the “% Inhibition (urease)” value on jack bean urease (jack bean urease) came to 84.2%. Besides, at urease, the affinity corresponds to a Ki of 8.2 µM, the “Mode of Inhibition” value is on record as “Mixed” and the “Vmax (app)” value was found to be 3.64 µM/min.
For `CC(=O)NS(=O)(=O)c1ccc(NC(=O)C(C)c2ccc(-c3ccccc3)c(F)c2)cc1` (stereo not drawn) [Conjugate 18, N-(4-(N-Acetylsulfamoyl)phenyl)-2-(2-fluoro-[1,1′-biphenyl]-4-yl)propanamide], the melting point lay in the range of 187 to 190 °C. On jack bean urease, this compound displayed an IC50 of 14.8 ± 0.16 µM. The “% Inhibition (urease)” value at jack bean urease (jack bean urease) is given as 87.1%. Further, on urease, the Ki worked out at 4.11 µM, the “Mode of Inhibition” value is recorded as “Mixed” and the “Vmax (app)” value turned out to be 1.02 µM/min.
For the compound `CC(C(=O)Nc1ccc(S(=O)(=O)NC(=N)N)cc1)c1ccc(-c2ccccc2)c(F)c1` (stereo not drawn) [Conjugate 19, N-(4-(N-Carbamimidoylsulfamoyl)phenyl)-2-(2-fluoro-[1,1′-biphenyl]-4-yl)propanamide], the melting point was 163 to 165 °C. The IC50 against jack bean urease amounted to 33.83 ± 0.18 µM. In addition, the “% Inhibition (urease)” value at jack bean urease (jack bean urease) was 83.8%.
In the case of `Cc1cc(NS(=O)(=O)c2ccc(NC(=O)C(C)c3ccc(CC(C)C)cc3)cc2)no1` (stereo not drawn) [Conjugate 9, 2-(4-Isobutylphenyl)-N-(4-(N-(5-methylisoxazol-3-yl)sulfamoyl)phenyl)propanamide], at jack bean urease, the IC50 was 39.9 ± 1.17 µM and the “urease inhibition (in words)” value is reported as “moderate inhibition”. Besides, the “% Inhibition (urease)” value on jack bean urease (jack bean urease) is 76.7%.
`Cc1noc(NS(=O)(=O)c2ccc(NC(=O)C(C)c3ccc(CC(C)C)cc3)cc2)c1C` (stereo not drawn) [Conjugate 5, N-(4-(N-(3,4-Dimethylisoxazol-5-yl)sulfamoyl)phenyl)-2-(4-isobutylphenyl)propanamide] gave an IC50 on jack bean urease of 23.3 ± 0.41 µM. Further, on jack bean urease (jack bean urease), the “% Inhibition (urease)” value is 84.0%.
With `CC(=O)NS(=O)(=O)c1ccc(NC(=O)C(C)c2ccc(CC(C)C)cc2)cc1` (stereo not drawn) [Conjugate 10, N-(4-(N-Acetylsulfamoyl)phenyl)-2-(4-isobutylphenyl)propanamide], the melting point fell in the range of 152 to 155 °C. The IC50 on jack bean urease was found to be 10.3 ± 0.11 µM. For the same compound, the “% Inhibition (urease)” value on jack bean urease (jack bean urease) is reported as 88.9%. For the same compound, at urease, the affinity, expressed as Ki, was 2.62 µM; the “Mode of Inhibition” value is reported as “Mixed”; the “Vmax (app)” value amounted to 1.04 µM/min.

The values above are taken from publication PMC10386649, “New Acetamide-Sulfonamide-Containing Scaffolds: Antiurease Activity Screening, Structure-Activity Relationship, Kinetics Mechanism, Molecular Docking, and MD Simulation Studies” (Molecules, 2023).
